Test results taken from patent US9857359B2, “Methods for determining drug efficacy using cereblon-associated proteins” (CELGENE CORPORATION, priority 2012, dated 2018).

Columns and labels:
Aiolos [1] = experiment: Aiolos protein inhibition in myeloma cells; type: cell-based
Aiolos [2] = experiment: Aiolos Western blotting of primary human T cells; type: cell-based; details: 6 hours and 24 hours
Experimental: Primary T cells from up to 3 donors were isolated from human leukocytes (Blood Center of New Jersey, East Orange, N.J.) by centrifugation through FICOLL® following the ROSETETTESEP™ protocol (Stem Cell Technologies, Vancouver, Canada). Purified T cells were stimulated with anti-CD3 Antibody (Ebioscience, San Diego, Calif.), drug treated for six hours, harvested and Aiolos and Ikaros protein expression was determined by immunoblot analysis using antibodies against Aiolos (Santa Cruz, Dallas, Tex.) and Ikaros (Millipore, Billerica, Mass.) with our without blocking peptide.

Aiolos [3] = experiment: Aiolos protein level in B cells from CLL patients and healthy subjects; type: cell-based, human; details: B cells obtained from CLL patients as well as healthy subjects
Aiolos [4] = experiment: Aiolos expression by western blot at 6 hours (FIG. 37); type: cell-based; details: 6 hours after the treatment, with varying degrees
Ikaros = Ikaros expression by western blot at 6 hours (FIG. 37); type: cell-based; details: 6 hours after the treatment, with varying degrees
Aiolos [5] = experiment: B-CLL / CD40L fibroblast co-culture, Aiolos (Western blot, flow cytometry); type: cell-based, human; details: for Aiolos protein level: B-CLL co-culture, 72 hours, 10 μM lenalidomide, 1 μM pomalidomide, 0.1 μM Compound A, 0.1 μM Compound B, 3 patient samples; for Dose dependence of Aiolos inhibition by flow cytometry: three different B-CLL patient co-culture samples
Experimental: (§1) CD40L expressing fibroblasts (gift from Angela Piperno, Rockefeller University, NY, N.Y.) were maintained in DMEM medium supplied with 20% FBS. Prior to co-cultures CD40L fibroblasts were pre-treated for 3 hours with 10 μg/mL Mytomicin C followed by a wash with PBS and Accutase dissociation. Cells were then re-plated at a density of 6×10^5 cells per well (24 well per plate format) and grown overnight to allow formation of monolayer. […] For long term cultures, half of the culture media was renewed every three days. Alternatively, for other assays, B-CLL cells were co-cultured on CD40L without being pre-stained.
(§2) Effects of compound treatment on CRBN, Aiolos, p21^WAF-1 and IRF4 were evaluated in 3 different patient cell samples (FIG. 56A).

IRF4 = experiment: B-CLL / CD40L fibroblast co-culture Western blot, IRF4; type: cell-based, human; details: 72 hours, 10 μM lenalidomide, 1 μM pomalidomide, 0.1 μM Compound A, 0.1 μM Compound B, 3 patient samples
Experimental: (§3) Human primary B-CLL cells viably frozen from patient samples were obtained from AllCells (Emeryville, Calif., USA) and maintained in Roswell Park Memorial Institute (RPMI)-1640 medium with 10% fetal bovine serum (FBS) (Invitrogen, Carlsbad, Calif.). CD40L expressing fibroblasts (gift from Angela Piperno, Rockefeller University, NY, N.Y.) were maintained in DMEM medium supplied with 20% FBS. Prior to co-cultures CD40L fibroblasts were pre-treated for 3 hours with 10 μg/mL Mytomicin C followed by a wash with PBS and Accutase dissociation. Cells were then re-plated at a density of 6×10^5 cells per well (24 well per plate format) and grown overnight to allow formation of monolayer. Defrosted viable primary B-CLL patient cells were pre-stained with CFSE reagent (Vibrant CFDA SE Cell Tracer Kit, Invitrogen, Carlsbad, Calif., USA) according to a manufacturer's supplied protocol and plated at 0.8-1×10^6 cells per well on the pre-formed monolayer of CD40L fibroblasts in RPMI 1640 medium supplemented with 10% FBS, 5 ng/mL rh-IL4 and 10 ng/mL rh-IL10 (Peprotech, USA). For long term cultures, half of the culture media was renewed every three days. Alternatively, for other assays, B-CLL cells were co-cultured on CD40L without being pre-stained.
(§4) Effects of compound treatment on CRBN, Aiolos, p21^WAF-1 and IRF4 were evaluated in 3 different patient cell samples (FIG. 56A). The three patient samples show similar expression levels of CRBN protein (compare lane 1 of the 3 Western blots in FIG. 56A; samples were run in same membrane even though gels are presented as 3 independent pictures in the figure). […] The effects on p21, IRF4 and Aiolos are consistent with the cell cycle arrest and inhibition of proliferation observed with compound treatment.

p21^WAF-1 = experiment: B-CLL / CD40L fibroblast co-culture Western blot, p21^WAF-1; type: cell-based, human; details: 72 hours, 10 μM lenalidomide, 1 μM pomalidomide, 0.1 μM Compound A, 0.1 μM Compound B, 3 patient samples
Experimental: as §3, §4

CRBN = CRBN (Homo sapiens, UniProt Q96SW2); experiment: B-CLL / CD40L fibroblast co-culture Western blot, CRBN; type: cell-based; parameters: endogenous in cells; host or cells: primary B-CLL patient cells co-cultured with CD40L-expressing fibroblasts; details: 72 hours, 10 μM lenalidomide, 1 μM pomalidomide, 0.1 μM Compound A, 0.1 μM Compound B, 3 patient samples
Chain of CRBN (Q96SW2 whole entry): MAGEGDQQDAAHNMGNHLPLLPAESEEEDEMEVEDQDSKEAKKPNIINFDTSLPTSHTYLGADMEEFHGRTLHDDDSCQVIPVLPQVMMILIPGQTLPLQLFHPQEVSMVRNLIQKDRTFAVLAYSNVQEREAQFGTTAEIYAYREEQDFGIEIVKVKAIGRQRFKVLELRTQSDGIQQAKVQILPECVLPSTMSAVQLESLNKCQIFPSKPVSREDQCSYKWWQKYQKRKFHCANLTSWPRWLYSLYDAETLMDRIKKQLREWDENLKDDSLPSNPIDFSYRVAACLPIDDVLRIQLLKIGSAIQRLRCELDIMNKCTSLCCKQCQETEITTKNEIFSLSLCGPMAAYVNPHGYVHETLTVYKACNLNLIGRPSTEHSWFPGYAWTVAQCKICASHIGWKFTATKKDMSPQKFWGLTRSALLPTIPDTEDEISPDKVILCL
Experimental: as §1, §2

| SMILES | Aiolos expression (Aiolos [1]) | Potency in Aiolos protein inhibition relative to Len (Aiolos [1]) | Aiolos expression (Aiolos [2]) | Aiolos expression (Aiolos [3]) | Aiolos expression (Aiolos [4]) | Ikaros expression (Ikaros) | Aiolos protein level (Aiolos [5]) | Dose dependence of Aiolos inhibition by flow cytometry (Aiolos [5]) | IRF4 protein level (IRF4) | p21^WAF-1 protein level (p21^WAF-1) | CRBN protein levels (CRBN) |
| --- | --- | --- | --- | --- | --- | --- | --- | --- | --- | --- | --- |
| Cc1nc2cccc(N)c2c(=O)n1C1CCC(=O)NC1=O (centres unmarked) [Compound A, 3-(5-amino-2-methyl-4-oxo-4H-quinazolin-3-yl)-piperidine-2,6-dione] | showed inhibitory effect on Aiolos expression | higher potency than Len | showed an inhibitory effect on Aiolos expression | inhibit Aiolos expression | inhibited the expression of both Aiolos and Ikaros | inhibited the expression of both Aiolos and Ikaros | down regulated | dose-dependent inhibition of Aiolos | down regulated | upregulated | do not affect CRBN protein levels or in some samples induce slight increased of CRBN levels |
| O=C1CC[C@H](N2Cc3c(OCc4ccc(CN5CCOCC5)cc4)cccc3C2=O)C(=O)N1 [Compound B, 3-(4-((4-(morpholinomethyl)benzyl)oxy)-1-oxoisoindolin-2-yl)piperidine-2,6-dione] | showed inhibitory effect on Aiolos expression | higher potency than Len | showed an inhibitory effect on Aiolos expression | inhibit Aiolos expression | inhibited the expression of both Aiolos and Ikaros | inhibited the expression of both Aiolos and Ikaros | down regulated | dose-dependent inhibition of Aiolos | down regulated | upregulated | do not affect CRBN protein levels or in some samples induce slight increased of CRBN levels |
| Nc1cccc2c1CN(C1CCC(=O)NC1=O)C2=O (centres unmarked) [lenalidomide] |  |  |  |  |  |  |  |  | down regulated | upregulated |  |
| Nc1cccc2c1C(=O)N(C1CCC(=O)NC1=O)C2=O (centres unmarked) [pomalidomide, reference compound] | showed inhibitory effect on Aiolos expression | higher potency than Len | showed an inhibitory effect on Aiolos expression | inhibit Aiolos expression | inhibited the expression of both Aiolos and Ikaros | inhibited the expression of both Aiolos and Ikaros | down regulated | dose-dependent inhibition of Aiolos | down regulated | upregulated | do not affect CRBN protein levels or in some samples induce slight increased of CRBN levels |
